Assay results taken from US11993582B2, “Crystalline forms of a LTA4H inhibitor” (Novartis AG, priority 2018, dated 2024).
In brackets after ≈: the same amount, converted by molar mass.

What was measured:
Type in all cases: physicochemical
[1] = Solid state stability in bulk (HPLC degradation products, XRPD); details: test conditions 1-5: 1 week, tight or open container, room temperature to 80° C., up to 92% RH; listed as Modification HB
Procedure: The chemical and physical stability of form B and form HB was investigated, exposing the individual forms to high humidity at temperatures ranging from 25-80° C.
The degradation products were analyzed by HPLC and the sample was analyzed by XPRD to detect any changes to the solid state.

[2] = Physical stability: behavior under grinding (XRPD); details: ground manually in a mortar for 3 minutes
Procedure: Behavior under grinding: The physical stability of crystalline form Form HB was also evaluated. 50 mg of the crystalline form B or HB were ground manually in a mortar for 3 minutes.

Hygroscopicity by DVS = experiment: Hygroscopicity by DVS
Excerpt: Crystalline form HB is a hydrated form of (S)-3-amino-4-(5-(4-((5-chloro-3-fluoropyridin-2-yl)oxy)phenyl)-2H-tetrazol-2-yl)butanoic acid.

[3] = Physical stability: granulation simulation experiment (XRPD and/or DSC); details: ethanol or water as granulation solvent, 25° C.
Procedure: Behavior under granulation simulation experiment: The physical stability of crystalline forms HB was also evaluated in granulation simulation experiments. In these experiments granulating solvent was added dropwise to the crystalline form HB until the solid is wetted sufficiently. The mixture was then vortexed between each addition at 25° C. The mixture was then dried under vacuum. The crystallinity of the material (post-grinding) was re-evaluated by XRPD and/or DSC. The granulating solvent was water or ethanol.

[4] = Solubility in aqueous buffers and bio-relevant media
[5] = Physical stability: behavior under compression (XRPD); details: 5 minutes at 10 tons, hydraulic press, 13 mm tablets
Procedure: Behavior under compression: The physical stability of crystalline Form HB was also evaluated. 300 mf of the crystalline form HB was compressed for 5 minutes at 10 tons with a hydraulic press (diameter of the tablets 13 mm). The sample was then characterized by XRPD to detect any change in the solid state.

[6] = Stability in solvent: equilibration of Form HB with solvent, residue analysed by XRPD
Procedure: Equilibrations with solvent were carried out to investigate the relative stability of form HB in solvent. 50 mg of Form HB is equilibrated with 1 mL solvent for 24 h (or 7 days, or 28 days) in a water bath at 25° C. or for 7 days at 50° C. The solutions are filtered and dried for 10 minutes in air. The resulting solid is analyzed by XRPD.
Various solvent were investigated: acetone, acetonitrile, dichloromethane, dioxane, ethanol, heptane, methanol, THF, acetone/water mixtures from 10/90 to 90/10, acetonitrile/water mixtures from 10/90 to 90/10, dioxane/water mixtures from 10/90 to 90/10 and ethanol/water mixture from 10/90 to 90/10, tetrahydrofuran/water (50/50) and 1-propanol/water (70/30).

[7] = as above; remark: listed apart in the source

With N[C@@H](CC(=O)O)Cn1nnc(-c2ccc(Oc3ncc(Cl)cc3F)cc2)n1 [Form HB, (S)-3-amino-4-(5-(4-((5-chloro-3-fluoropyridin-2-yl)oxy)phenyl)-2H-tetrazol-2-yl)butanoic acid] the “Chemical and physical stability in bulk” value [1] was “stable in all conditions except at 80 °C without humidity”, the “Change by XRPD under grinding” value [2] was “did not result in any change” and the Rehydration (Hygroscopicity by DVS; at 10% RH and above 60% RH) was “Stepwise rehydration to HB”. For the same compound, the “Behaviour at low humidity” value (Hygroscopicity by DVS; below 10% RH) was “loses their water”, the Hygroscopicity (Hygroscopicity by DVS; between 10-90% RH) was “not hygroscopic” and the “Form change by XRPD upon granulation” value [3] was “no form change”. It also gave a solubility ([4]; FaSSIF (pH=6.5)) of 90 µg/mL (≈ 229 µM), a solubility ([4]; FeSSIF (pH=5.8)) of 9 µg/mL (≈ 22.9 µM) and a solubility ([4]; simulated gastric fluid (SGF of pH=2)) of 750 µg/mL (≈ 1910 µM). The “Change of crystalline form by XRPD under compression” value [5] was “No change of crystalline form”, the “Solid form after equilibration with solvent” value (“Solid form after equilibration” for short) ([6]; 25° C., 7 days or 28 days, a variety of solvent) was “no change” and the “Solid form after equilibration” value ([6]; 25° C., 7 days or 28 days, acetone, dioxane, ethanol, methanol and THF) was “converts to amorphous material or gel like material”. For the same compound, the Solid state residue ([6]; 50° C., 7 days, 1,4-Dioxane) was “Amorphous”, the Solid state residue ([6]; 50° C., 7 days, 1-Butanol) was “Amorphous” and the Solid state residue ([6]; 50° C., 7 days, Acetone) was “Amorphous”. The Solid state residue ([6]; 50° C., 7 days, Acetone/water 50/50) was “Form HB”, the Solid state residue ([6]; 50° C., 7 days, Acetone/water 90/10) was “Form HB” and the Solid state residue ([6]; 50° C., 7 days, Acetonitrile) was “Amorphous”. The Solid state residue ([6]; 50° C., 7 days, Anisole) was “Amorphous”, the Solid state residue ([6]; 50° C., 7 days, DMSO) was “Amorphous” and the Solid state residue ([6]; 50° C., 7 days, DMSO/methanol 50/50) was “Amorphous”. For the same compound, the Solid state residue ([6]; 50° C., 7 days, DMSO/water 50/50) was “Form HB”, the Solid state residue ([6]; 50° C., 7 days, DMSO/water 90/10) was “Amorphous” and the Solid state residue ([6]; 50° C., 7 days, Dichloromethane) was “Amorphous”. The Solid state residue ([6]; 50° C., 7 days, Ethanol) was “Amorphous”, the Solid state residue ([6]; 50° C., 7 days, Ethyl acetate) was “Amorphous” and the Solid state residue ([6]; 50° C., 7 days, Isopropanol) was “Amorphous”. For the same compound, the Solid state residue ([6]; 50° C., 7 days, Isopropyl acetate) was “Amorphous”, the Solid state residue ([6]; 50° C., 7 days, MEK) was “Amorphous” and the Solid state residue ([6]; 50° C., 7 days, MIBK) was “Amorphous”. The Solid state residue ([6]; 50° C., 7 days, MTBE) was “Amorphous”, the Solid state residue ([6]; 50° C., 7 days, Methanol) was “transformed into Form B” and the Solid state residue ([6]; 50° C., 7 days, NMP) was “Amorphous”. The Solid state residue ([6]; 50° C., 7 days, THF) was “Amorphous”, the Solid state residue ([6]; 50° C., 7 days, THF/acetone 50/50) was “Amorphous” and the Solid state residue ([6]; 50° C., 7 days, THF/methanol 50/50) was “Amorphous”. The Solid state residue ([6]; 50° C., 7 days, THF/water 50/50) was “Form HB”, the Solid state residue ([6]; 50° C., 7 days, Toluene) was “Amorphous” and the Solid state residue ([6]; 50° C., 7 days, Water) was “Form HB”. The “Solid form after equilibration” value ([6]; 50° C., 7 days, many solvents) was “became amorphous”, the Solid state residue ([6]; 50° C., 7 days, n-Heptane) was “mixture HB + B” and the “Form conversion through slurry” value ([7]; high temperature slurry at 80° C. in aqueous solvent mixtures) was “Modification B can be obtained”. The “Form conversion through slurry” value ([7]; hot or boiling methanol, about 50° C. to about 65° C.) was “transforms into anhydrous Modification B”.
